“Also recorded” adds a separate entry of the source.
Assays:
[1] = Chronic administration for 3 weeks, body weight of rats; format: in vivo, rat; details: fourth week (one week after discontinuation), vs solvent control, listed as leonurine crystal form A
Description: Forty male Sprague-Dawley rats weighed 180 to 220 g were randomly divided into 4 groups (10 rats each group): control group are treated with equal volume of DMSO, and the treatment groups were administered at 30 mg/kg per day, 60 mg/kg per day, and 120 mg/kg per day of leonurine crystal form A respectively, where leonurine crystal form A was dissolved in DMSO at concentrates of 30 mg/ml, 60 mg/ml and 120 mg/ml, and the volume of vehicle administered intragastrically in each rat was 1 ml per kg of body weight. The rats were treated with leonurine crystal form A or DMSO once a day continuously for 3 weeks, and the body weight and fasting blood-glucose were detected at third week. The rats were fasted (allowed water ad libitum) for 12 h before experiment. Fasting blood-glucose and body weight were tested after 1 h of administered drugs. The rats were not given drugs on the next days for one week, and the body weight and fasting blood-glucose were detected at forth week. The data were analyzed by SPSS statistical software (version 11.5), and results were expressed as the mean±standard error of the mean (mean±SEM). Multiple group comparisons were tested by one-way analysis of variance (ANOVA). P<0.05 was considered as statistically significant.

[2] = tested on: Sprague-Dawley rats; test: Chronic administration for 3 weeks, glucose tolerance test (OGTT) in rats; format: in vivo; details: rat, vs solvent control, listed as leonurine crystal form A
Description: […] male Sprague-Dawley rats weighed 180 to 220 g were randomly divided into 4 groups, and with vehicle or three different dose of leonurine crystal form A treatment respectively: control group are treated with equal volume of DMSO, and treatment groups are treated with 30 mg/kg per day, 60 mg/kg per day, or 120 mg/kg per day of leonurine crystal form A. Leonurine crystal form A was dissolved in DMSO at concentrates of 30 mg/ml, 60 mg/ml and 120 mg/ml, and the volume of vehicle administered intragastrically in each rat was 1 ml per kg of body weight. The rats were treated with leonurine crystal form A or DMSO once a day for 3 weeks. Oral glucose tolerance test (OGTT) was detected at third week, and the rats were fasted 12 h before OGTT experiment. OGTT experiment was performed 1 h after administered of drugs. Blood glucose and body weight were tested before OGTT. OGTT: Rats were given 25% glucose solution (2 g/kg of body weight, 8 ml/kg) by […], and blood glucose concentration was determined from the tail vein at 15, 30, 60 and 120 min. The drug was discontinued for one week after OGTT, and the body weight and fasting blood-glucose were detected at forth week.
The data were analyzed by SPSS statistical software (version 11.5), and results were expressed as the mean±standard error of the mean (mean±SEM). Multiple group comparisons were tested by one-way analysis of variance (ANOVA). P<0.05 was considered as statistically significant. […] At 15 min time point, the glucose tolerance curve was shifted down. […] Moreover, at 60 min time point, the glucose tolerance curve also was moved down at the dose of 30 mg/kg/d and 120 mg/kg/d.

[3] = tested on: ApoE knockout mice; test: Serum lipids in hyperlipidemia ApoE knockout mice on high fat diet; format: in vivo; details: 4 weeks
Description: Fifteen C57BL/6J mice (male, 6-8 weeks) and seventy-five ApoE knockout mice (male, 6-8 weeks) were used for experiments. C57BL/6J mice were fed with normal diet, and ApoE knockout mice were fed for 1 week with a diet of normal/high fat diet ratio of 1/1.
Mice were weighed before administered drugs every week, where the dosage of the drug for mice is calculate according to the weight; and housed under 24±1° C. room temperature and 55±5% air humidity condition, and allowed enough food and water ad libitum. After the drug administration continuously for 4 weeks, the mice were anesthetized with pentobarbital sodium according to body weight. Blood (0.5 ml per mouse) was drawn from the inner canthus vein for hematology analysis. Hematology analysis: blood samples were let for standing for 2 h and centrifuged (3000 rpm, 10 min, 4° C.) to obtain serum. The total cholesterol (TC), triacylglycerol (TG) and low-density cholesterol (LDL-C) levels in the serum samples were assessed using automatic biochemical analyzer. Statistical analysis: GraphPad Prism 5 software was used to analyze and draw figure. Results were expressed as the mean±standard (mean±SD), and statistical analysis was performed by one-way analysis of variance (ANOVA) or student's t test. A difference with P<0.05 was considered statistically significant. Statistical significance was set at *P<0.05, **P<0.01, ***P<0.001 versus the model group.

[4] = tested on: New Zealand white rabbit; test: Serum lipids in hyperlipidemia New Zealand rabbits on high fat diet; format: in vivo; details: 12 weeks
Description: Forty-eight male New Zealand rabbits weighed 1.8 to 2.2 kg were housed under 12 h dark-12 h light cycles and allowed food and water ad libitum to adapt to the housing environment for one week, and then randomly divided into 6 groups: • 1) Control group (Normal diet, n=8); Administered intragastrically with ultrapure water; • 2) Model group (High fat diet, n=8); Administered intragastrically with ultrapure water; • 3) Leonurine crystal form A in low dose group (High fat diet, n=8); Administered intragastrically at a dose of 4 mg/kg/day; • 4) Leonurine crystal form A in middle dose group (High fat diet, n=8); Administered intragastrically at a dose of 8 mg/kg/day; • 5) Leonurine crystal form A in high dose group (High fat diet, n=8); […] Administered intragastrically at a dose of 2.5 mg/kg/day; Rabbits were weighed before administered drugs every week, where the dosage of the drug for rabbits is calculate according to the weight; and housed in an air-conditioned room under (24±1° C. room temperature and 55±5% air humidity) and allowed enough food and water ad libitum. After 12 weeks of administration, the rabbits were fasted for 12 h, and blood (2 ml) was drawn from the marginal ear vein for hematology analysis. Hematology analysis: blood samples were let for standing for 2 h and centrifuged (3000 rpm, 10 min, 4° C.) to obtain serum. The serum samples were tested according to the protocols recommended by Nanjing Jiancheng Bioengineering Institute. The total cholesterol (TC), triacylglycerol (TG), low-density cholesterol (LDL-C) and […] (HDL-C) levels in the serum samples were assessed using automatic microplate reader and automatic biochemical analyzer. Statistical analysis: GraphPad Prism 5 software was used to analyze and draw figure. Results were expressed as the mean±standard (mean±SD), and statistical analysis was performed by one-way analysis of variance (ANOVA) or student's t test. A difference with P<0.05 was considered statistically significant. Statistical significance was set at *P<0.05, **P<0.01, ***P<0.001 versus the model group.

[5] = previous toxicological study; cited from earlier work
[6] = dose not stated, listed as leonurine crystal form A
[7] = middle dose group 20 mg/kg/day intragastric, vs model group, listed as leonurine crystal form A
[8] = high dose group 16 mg/kg/day intragastric, vs model group

## COc1cc(C(=O)OCCCCNC(=N)N)cc(OC)c1O [crystal form A, 4-guanidino-1-butyl 4-hydroxy-3,5-dimethoxybenzoate]
[1]; 60 mg/kg/d for 3 weeks
  weight of rats: significantly reduced; also recorded: significantly decreased
[1]; 120 mg/kg/d for 3 weeks
  weight of rats: had not statistically difference; also recorded: not statistically significant
[2]; 30 mg/kg/d for 3 weeks, 15 minute time point, 30 mg/kg/day
  glucose tolerance curve (blood glucose): reduce the degree of elevation of blood glucose; also recorded: decrease the level of blood glucose
[2]; 30 mg/kg/d for 3 weeks, 60 minute time point, 30 mg/kg/day
  glucose tolerance curve (blood glucose): reduce the degree of elevation of blood glucose; also recorded: decrease the level of blood glucose
[2]; 120 mg/kg/d for 3 weeks, 60 minute time point, 120 mg/kg/day
  glucose tolerance curve (blood glucose): reduce the degree of elevation of blood glucose; also recorded: decrease the level of blood glucose
[3]; [6]
  serum low-density lipoprotein / low-density cholesterol (LDL-C): reduce; also recorded: significantly decrease
  serum total cholesterol (TC): reduce; also recorded: significantly decrease
  serum triglycerides / triacylglycerol (TG): reduce; also recorded: significantly decrease
[3]; middle dose group 20 mg/kg/day intragastric, vs model group
  serum total cholesterol (TC): reduced
[3]; [7]
  serum low-density cholesterol (LDL-C): reduced; also recorded: decrease
  serum triacylglycerol (TG): reduced; also recorded: decrease
[4]; [6]
  serum total cholesterol (TC): reduce; also recorded: decrease
  serum triglycerides / total triacylglycerol (TG): reduce; also recorded: decrease
[4]; [8]
  serum total cholesterol (TC): reduced
  serum triacylglycerol (TG): reduced
[4]; middle dose group 8 mg/kg/day intragastric, vs model group
  serum triacylglycerol (TG): reduced
[5]
  toxicity: very low
